{"source": "patent EP1779117B1", "about": "“METHODS FOR MEASURING ADAMTS13 ACTIVITY ON THE SURFACE OF PLATELETS” (American Diagnostica Inc., priority 2004, dated 2006)", "key": {"[1]": {"tested_on": "ADAMTS13", "experiment": "Cleavage of peptidyl substrates by ADAMTS13 in PRP (optical density / fluorescence)", "format": "biochemical", "conditions": "for cleavage by ADAMTS13 in PRP: normal PRP 20 µl, 10 mM Tris-HCl pH 8.0, 37° C, Ex 360 nm/ Em 460 nm", "experimental": "As discussed above, Furlan et al. reported that some peptidyl-pNA moieties, such as XLY-pNA and XVY-pNA, were not substrates for ADAMTS13. We prepared LVY-pNA and tested it for its ability to be cleaved by ADAMTS 13. The results shown in Figure 2 confirm the findings of Furlan et al., i.e., LVY-pNA was not cleaved by ADAMTS13.\nIn order to determine the effect of modifying the length of the peptide sequence conjugated to the AMC fluorochrome, normal PRP (20 µl) was incubated at 37° C with a final concentration of 0.8 mM Suc-LLVY-AMC or LVY-AMC in 10 mM Tris-HCl pH 8.0 buffer in total volume of 200 µl. Fluorescence was measured using a microtiter fluorophotometric plate reader (Ex 360 nm/ Em 460 nm)."}, "[2]": {"tested_on": "ADAMTS13 found on platelets", "experiment": "FRET substrate cleavage by isolated platelets", "format": "biochemical", "conditions": "8 µg/ml substrate, 10mM Tris-HCl pH 8.0, 37°C, Ex 360 nm/ Em 440 nm, Figure 4", "experimental": "ADAMTS13 activity was measured using a fluorescent substrate attached to a donor moiety and an acceptor moiety that functions by fluorescence resonance energy transfer (FRET). The ADAMTS 13 selective substrate, NH2-Arg-Lys(DABCYL)-NLVYMVTGD(EDANS)-Arg-COOH, was used in this example. The NLVYMVTGD peptide sequence of this substrate is homologous to the ADAMTS13 cleavage site on VWF. The intact peptidyl substrate has low fluorescence, due to quenching of the […]. Cleavage of the substrate between the tyrosine and methionine of the peptide sequence results in an increase in fluorescence.\nIsolated platelets in 10mM Tris-HCl pH 8.0 assay buffer were incubated with a final concentration of 8 µg/ml of the FRET substrate at 37°C. The fluorescence was measured in a spectrofluorometric plate reader (Ex 360 nm/ Em 440 nm). […] The skilled artisan can design other FRET substrates for measuring ADAMTS 13 activity using his or her own knowledge and the teachings herein."}}, "note": "Starred links: 1 amine or outer side, 2 acyl side, 3 side chain; linkers in the order of their positions; H or OH if unused. Residues, ends and D or L forms follow the SMILES beside them. *: point of attachment. EDANS = O=S(=O)(O)c1cccc2c(NCCN*)cccc12; pNA = O=[N+]([O-])c1ccc(N*)cc1; AMC = Cc1cc(=O)oc2cc(N*)ccc12; Suc = O=C(CCC(=O)[*:2])[*:1]"}
{"compound": "Cc1cc(=O)oc2cc(NC(=O)[C@H](Cc3ccc(O)cc3)NC(=O)[C@@H](NC(=O)[C@@H](N)CC(C)C)C(C)C)ccc12", "note": "[LVY-AMC, Leu-Val-Tyr-AMC] (H-Leu-Val-Tyr-{AMC})", "values": [{"measurement": "cleavage by ADAMTS13 in PRP", "setting": "[1]; 0.8 mM substrate, Figure 3", "result": "cleaved"}]}
{"compound": "Cc1cc(=O)oc2cc(NC(=O)[C@H](Cc3ccc(O)cc3)NC(=O)[C@@H](NC(=O)[C@H](CC(C)C)NC(=O)[C@H](CC(C)C)NC(=O)CCC(=O)O)C(C)C)ccc12", "note": "[Suc-LLVY-AMC, Suc-Leu-Leu-Val-Tyr-AMC] (Suc-LLVY-{AMC})", "values": [{"measurement": "cleavage by ADAMTS13 in PRP", "setting": "[1]; 0.8 mM substrate, Figure 3", "result": "cleaved"}, {"measurement": "fluorescence signal over time compared to the other AMC substrate", "setting": "[1]; normal PRP, 0.8 mM substrate, 37° C, Figure 3", "result": "higher signal over time"}]}
{"compound": "NH2-Arg-Lys-(DABCYL)- Asn-Leu- Val-Tyr-Met- Val- Thr-Gly-Asp-(EDANS)-Arg-COOH ({H2N-Arg-K(DABCYL)}-NLVYMVTGD(EDANS)R-OH; also: EDANS after Asp (on Asp side chain or between Asp and Arg))", "values": [{"measurement": "fluorescence on incubation with platelets (cleavage of FRET substrate)", "setting": "[2]", "result": "increased fluorescence over time"}]}
{"compound": "CC(C)C[C@H](N)C(=O)N[C@H](C(=O)N[C@@H](Cc1ccc(O)cc1)C(=O)Nc1ccc([N+](=O)[O-])cc1)C(C)C", "note": "[LVY-pNA] (H-Leu-Val-Tyr-pNA)", "values": [{"measurement": "cleavage by ADAMTS13", "setting": "[1]; LVY-pNA tested as substrate, Figure 2", "result": "not cleaved"}]}
